Experiments:
Assay in all cases: combination Emax (second highest fraction inhibited in the dose matrix, 72 h); higher = more inhibition; extreme values may be limits of the assay
CS1 (Chondrosarcoma) = system: CS1 (Chondrosarcoma)
Summary of the method: (§1)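 Cell lines in DMEM/F12 or RPMI with 10% FBS were plated in 1536-well plates, held 24 hours at 37°C, 5% CO2, then given two-drug dose matrices for 72 hours (DMSO typically 0.2%). Viability was read by CellTiter-Glo 2.0 luminescence and scaled as inhibition from 0 (vehicle wells) to 1 (blank wells). Combination Emax is the second-highest inhibition in the matrix; Bliss excess is observed combination effect minus expected EA + EB − EA·EB, EA and EB being single-agent effects.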

[1] = system: PA-TU-8902 (Pancreatic Carcinoma)
Summary of the method: as §1

[2] = system: JHH-6 (Hepatocellular Carcinoma)
Summary of the method: as §1

D-392MG (Glioblastoma) = system: D-392MG (Glioblastoma)
Summary of the method: as §1

[3] = system: MEG-01 (Chronic Myelogenous Leukemia)
Summary of the method: as §1

A172 (Glioblastoma) = system: A172 (Glioblastoma)
Summary of the method: as §1

[4] = system: SNU-61 (Colorectal Carcinoma)
Summary of the method: as §1

[5] = system: GDM-1 (Acute Myeloid Leukemia)
Summary of the method: as §1

[6] = system: KG-1 (Acute Myeloid Leukemia)
Summary of the method: as §1

[7] = system: HOP-92 (Non-Small Cell Lung Carcinoma)
Summary of the method: as §1

[8] = system: HCC1143 (Breast Carcinoma)
Summary of the method: as §1

[9] = system: U-118-MG (Low Grade Glioma)
Summary of the method: as §1

Structure (SMILES)	combination Emax (CS1 (Chondrosarcoma))	combination Emax [1]	combination Emax [2]	combination Emax (D-392MG (Glioblastoma))	combination Emax [3]	combination Emax (A172 (Glioblastoma))	combination Emax [4]	combination Emax [5]	combination Emax [6]	combination Emax [7]	combination Emax [8]	combination Emax [9]
CCc1c2c(nc3ccc(O)cc13)-c1cc3c(c(=O)n1C2)COC(=O)[C@]3(O)CC [SN-38] + O=C(c1cc(Cc2n[nH]c(=O)c3ccccc23)ccc1F)N1CCN(C(=O)C2CC2)CC1 [Olaparib] (first compound max 0.3 µM, 7x7, partner max 10 µM)	0.846	0.428	0.42	0.435	0.755	0.842	–	–	–	–	–	–
CCN(CCO)CCCOc1ccc2c(Nc3cc(CC(=O)Nc4cccc(F)c4)[nH]n3)ncnc2c1 [AZD2811] + C=CCn1c(=O)c2cnc(Nc3ccc(N4CCN(C)CC4)cc3)nc2n1-c1cccc(C(C)(C)O)n1 [AZD1775] (first compound max 1 µM, partner max 1 µM)	0.45	0.222	0.223	0.168	0.863	0.603	0.212	0.857	0.436	0.646	0.623	0.333
CCc1c2c(nc3ccc(O)cc13)-c1cc3c(c(=O)n1C2)COC(=O)[C@]3(O)CC [SN-38] + CN(C)CCCOc1ccc(-c2ccc3ncc4c(c3c2)n(C2CCOCC2)c(=O)n4C)cn1 [AZD0156] (first compound max 0.3 µM, 7x7, partner max 1 µM)	0.821	0.413	0.326	0.609	0.73	0.81	0.152	0.937	0.886	0.606	0.662	0.893
CCN(CCO)CCCOc1ccc2c(Nc3cc(CC(=O)Nc4cccc(F)c4)[nH]n3)ncnc2c1 [AZD2811] + O=C(c1cc(Cc2n[nH]c(=O)c3ccccc23)ccc1F)N1CCN(C(=O)C2CC2)CC1 [Olaparib] (first compound max 1 µM, 7x7, partner max 10 µM)	0.386	0.187	0.241	0.174	0.564	0.534	0.171	0.818	0.37	0.363	0.372	0.377
Cc1cc2ncnn2cc1Nc1ncc2c(n1)n(C1CCOCC1)c(=O)n2C [AZD7648] + CN(C)CCCOc1ccc(-c2ccc3ncc4c(c3c2)n(C2CCOCC2)c(=O)n4C)cn1 [AZD0156] (first compound max 10 µM, 7x7, partner max 1 µM)	0.306	0.227	0.279	0.301	0.361	0.319	0.172	0.657	0.323	0.231	0.242	0.277
CN(CCO)CC[C@H](CSc1ccccc1)Nc1ccc(S(=O)(=O)NC(=O)c2ccc(N3CCC([C@@H](O)c4ccccc4-c4ccc(Cl)cc4)CC3)cc2)cc1S(=O)(=O)C(F)(F)F [AZD4320] + C[C@@H]1COCCN1C2=NC(=NC(=C2)C3(CC3)[S@](=N)(=O)C)C4=C5C=CNC5=NC=C4 [AZD6738] (first compound max 1 µM, 7x7, partner max 10 µM)	0.83	0.341	0.443	0.792	0.983	0.731	0.365	1	1	0.976	0.842	0.878
C=CCn1c(=O)c2cnc(Nc3ccc(N4CCN(C)CC4)cc3)nc2n1-c1cccc(C(C)(C)O)n1 [AZD1775] + O=C(c1cc(Cc2n[nH]c(=O)c3ccccc23)ccc1F)N1CCN(C(=O)C2CC2)CC1 [Olaparib] (first compound max 1 µM, partner max 10 µM)	0.564	0.289	0.223	0.235	0.845	0.434	0.302	0.827	0.412	0.596	0.593	–
CCN(CCO)CCCOc1ccc2c(Nc3cc(CC(=O)Nc4cccc(F)c4)[nH]n3)ncnc2c1 [AZD2811] + C[C@@H]1COCCN1C2=NC(=NC(=C2)C3(CC3)[S@](=N)(=O)C)C4=C5C=CNC5=NC=C4 [AZD6738] (first compound max 1 µM, 7x7, partner max 10 µM)	0.632	0.216	0.266	0.392	0.912	0.655	0.297	0.823	0.699	0.626	0.824	0.52
Cc1c2c(nn1C)CSCc1cc(n(C)n1)CSc1cc(c3ccccc3c1)OCCCc1c(C(=O)O)n(C)c3c-2c(Cl)ccc13 [AZD5991] + C1CN(CCC1(C(=O)N[C@@H](CCO)C2=CC=C(C=C2)Cl)N)C3=NC=NC4=C3C=CN4 [Capivasertib] (first compound max 1 µM, 7x7, partner max 3 µM)	0.255	0.174	0.278	0.495	0.361	0.234	0.117	0.454	1	0.402	0.252	0.289
COc1cccc(OCCCN)c1-c1cc(Nc2cnc(C#N)cn2)n[nH]1 [Prexasertib] + C[C@@H]1COCCN1C2=NC(=NC(=C2)C3(CC3)[S@](=N)(=O)C)C4=C5C=CNC5=NC=C4 [AZD6738] (first compound max 1 µM, 7x7, partner max 10 µM)	0.714	0.601	0.367	0.524	0.929	0.775	0.422	0.94	0.931	0.669	0.938	0.772
COc1cccc(OCCCN)c1-c1cc(Nc2cnc(C#N)cn2)n[nH]1 [Prexasertib] + CN(C)CCCOc1ccc(-c2ccc3ncc4c(c3c2)n(C2CCOCC2)c(=O)n4C)cn1 [AZD0156] (first compound max 1 µM, 7x7, partner max 1 µM)	0.685	0.586	0.342	0.567	0.921	0.699	0.422	0.913	0.903	0.704	0.912	0.723
C=CCn1c(=O)c2cnc(Nc3ccc(N4CCN(C)CC4)cc3)nc2n1-c1cccc(C(C)(C)O)n1 [AZD1775] + C[C@@H]1COCCN1C2=NC(=NC(=C2)C3(CC3)[S@](=N)(=O)C)C4=C5C=CNC5=NC=C4 [AZD6738] (first compound max 1 µM, partner max 10 µM)	0.766	0.49	0.553	0.483	0.935	0.81	0.404	0.861	0.83	0.643	0.906	0.662
CN(CCO)CC[C@H](CSc1ccccc1)Nc1ccc(S(=O)(=O)NC(=O)c2ccc(N3CCC([C@@H](O)c4ccccc4-c4ccc(Cl)cc4)CC3)cc2)cc1S(=O)(=O)C(F)(F)F [AZD4320] + Cc1cc2ncnn2cc1Nc1ncc2c(n1)n(C1CCOCC1)c(=O)n2C [AZD7648] (first compound max 1 µM, 7x7, partner max 10 µM)	0.347	0.144	0.174	0.169	0.925	0.262	0.107	0.982	0.966	0.891	0.282	0.351
Cc1cc2ncnn2cc1Nc1ncc2c(n1)n(C1CCOCC1)c(=O)n2C [AZD7648] + C[C@@H]1COCCN1C2=NC(=NC(=C2)C3(CC3)[S@](=N)(=O)C)C4=C5C=CNC5=NC=C4 [AZD6738] (first compound max 10 µM, 7x7, partner max 10 µM)	0.591	0.24	0.333	0.52	0.894	0.687	0.326	0.789	0.67	0.493	0.853	0.435
COc1cccc(OCCCN)c1-c1cc(Nc2cnc(C#N)cn2)n[nH]1 [Prexasertib] + O=C(c1cc(Cc2n[nH]c(=O)c3ccccc23)ccc1F)N1CCN(C(=O)C2CC2)CC1 [Olaparib] (first compound max 1 µM, 7x7, partner max 10 µM)	0.706	0.501	0.499	0.491	0.893	0.626	0.474	0.91	1	0.665	0.735	0.751
COc1cc2c(cc1OCCCCCOc1cc3c(cc1OC)C(=O)N1C=C(C)C[C@H]1C=N3)N=C[C@@H]1CC(C)=CN1C2=O [SG3199] + O=C(c1cc(Cc2n[nH]c(=O)c3ccccc23)ccc1F)N1CCN(C(=O)C2CC2)CC1 [Olaparib] (first compound max 0.001 µM, 7x7, partner max 10 µM)	0.178	0.0749	0.113	0.111	0.111	0.363	0.0451	0.32	0.289	0.192	0.225	0.305
CN(CCO)CC[C@H](CSc1ccccc1)Nc1ccc(S(=O)(=O)NC(=O)c2ccc(N3CCC([C@@H](O)c4ccccc4-c4ccc(Cl)cc4)CC3)cc2)cc1S(=O)(=O)C(F)(F)F [AZD4320] + C1CN(CCC1(C(=O)N[C@@H](CCO)C2=CC=C(C=C2)Cl)N)C3=NC=NC4=C3C=CN4 [Capivasertib] (first compound max 1 µM, 7x7, partner max 3 µM)	0.491	0.156	0.153	0.189	0.901	0.158	0.053	0.991	0.929	0.891	0.297	0.497
CN(C)CCCOc1ccc(-c2ccc3ncc4c(c3c2)n(C2CCOCC2)c(=O)n4C)cn1 [AZD0156] + C=CCn1c(=O)c2cnc(Nc3ccc(N4CCN(C)CC4)cc3)nc2n1-c1cccc(C(C)(C)O)n1 [AZD1775] (first compound max 1 µM, partner max 1 µM)	0.509	0.252	0.148	0.18	0.883	0.53	0.248	0.823	0.357	0.631	0.6	0.316
